Test [1] deals with T1, IRAK4 (Homo sapiens (Human), UniProt Q9NWZ3). The test is described as follows: IRAK4 Biochemical HTRF Kinase Assay. The note with it: Table 5; multiple runs; read-out: IRAK4 HTRF biochemical: IC50. In short, it runs like this: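 HTRF KinEASE STK S1 format measuring IRAK4 phosphorylation of biotinylated peptide; reaction solution of 5 μM STK-S1, 10 mM ATP, 10 mM MgCl2 added (stock, to 10 μl final), 90 min at ambient temperature, detection 60 min. IC50 from sixteen-point duplicate curves by non-linear regression.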
Background: TR-FRET usually uses a lanthanide donor and a delayed reading to cut background.
Target sequence in this assay (Q9NWZ3 whole entry, species assumed): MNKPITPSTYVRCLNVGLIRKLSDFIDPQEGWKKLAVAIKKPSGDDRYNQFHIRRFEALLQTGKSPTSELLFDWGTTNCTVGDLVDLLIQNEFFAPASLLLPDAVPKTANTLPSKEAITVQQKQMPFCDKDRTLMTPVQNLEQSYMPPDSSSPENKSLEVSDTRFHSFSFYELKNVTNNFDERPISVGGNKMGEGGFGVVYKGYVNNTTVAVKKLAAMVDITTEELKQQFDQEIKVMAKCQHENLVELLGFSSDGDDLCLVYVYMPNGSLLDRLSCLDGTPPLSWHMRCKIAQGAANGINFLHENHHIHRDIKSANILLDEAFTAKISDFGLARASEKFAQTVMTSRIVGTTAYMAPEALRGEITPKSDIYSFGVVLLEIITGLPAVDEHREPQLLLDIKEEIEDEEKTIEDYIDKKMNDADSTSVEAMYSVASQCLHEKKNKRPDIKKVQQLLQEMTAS

Test [2] addresses T1, IRAK4. Nature of the test: IRAK4 Degradation HiBiT Assay. As to conditions: multiple runs, HiBiT-tagged Jurkat cells, 4 hrs; for Dmax: Jurkat, read-out: Cellular IRAK4 HiBiT: Dmax, Table 5; for DC50: read-out: Cellular IRAK4 HiBiT: DC50, Table 5. (In general: The HiBiT peptide binds its large partner to form an active luciferase.)
Target sequence in this assay (Q9NWZ3 whole entry): as the sequence (Q9NWZ3 whole entry, species assumed) above

pIC50: −log10 of the molar value.

One may read the pIC50 as the IC50 on a negative log10 scale, so that one unit is a factor of ten. For orientation: Dmax means the greatest extent of degradation seen. Usually DC50 stands for the midpoint of the concentration-degradation curve.

`CNc1cc(-c2ccc3cc(C#N)cnn23)ncc1-c1nnc(N2CCC(N3CCN(C(=O)c4ccc5c(c4)C(=O)N(C4CCC(=O)NC4=O)C5=O)CC3)CC2)s1` (stereo not drawn) [Example 186, 7-(5-(5-(4-(4-(2-(2,6-dioxopiperidin-3-yl)-1,3-dioxoisoindoline-5-carbonyl)piperazin-1-yl)piperidin-1-yl)-1,3,4-thiadiazol-2-yl)-4-(methylamino)pyridin-2-yl)pyrrolo[1,2-b]pyridazine-3-carbonitrile]: on IRAK4 [1], the pIC50 was 9.52. Moreover, at IRAK4 [2], the Dmax is 96% and the DC50 worked out at 17.1 nM.

For `CNc1cc(-c2ccc3cc(C#N)cnn23)ncc1-c1nnc(N2CCN(CCC3CCN(c4ccc5c(c4)C(=O)N(C4CCC(=O)NC4=O)C5=O)CC3)CC2)s1` (stereo not drawn) [Example 187, 7-(5-(5-(4-(2-(1-(2-(2,6-dioxopiperidin-3-yl)-1,3-dioxoisoindolin-5-yl)piperidin-4-yl)ethyl)piperazin-1-yl)-1,3,4-thiadiazol-2-yl)-4-(methylamino)pyridin-2-yl)pyrrolo[1,2-b]pyridazine-3-carbonitrile], the pIC50 on IRAK4 [1] is 9.05. Besides, at IRAK4 [2], the Dmax stood at 95% and the DC50 was 88.3 nM.

Consider `CNc1cc(-c2ccc3cc(C#N)cnn23)ncc1-c1nnc([C@H]2CC[C@H](N(C)C(=O)CCN3CCN(c4ccc5c(c4)C(=O)N(C4CCC(=O)NC4=O)C5=O)CC3)CC2)s1` (stereo partly drawn) [Example 188, N-((1r,4r)-4-(5-(6-(3-cyanopyrrolo[1,2-b]pyridazin-7-yl)-4-(methylamino)pyridin-3-yl)-1,3,4-thiadiazol-2-yl)cyclohexyl)-3-(4-(2-(2,6-dioxopiperidin-3-yl)-1,3-dioxoisoindolin-5-yl)piperazin-1-yl)-N-methylpropanamide], for which the pIC50 at IRAK4 [1] was 9.30. Moreover, on IRAK4 [2], the Dmax was found to be 108% and the DC50 amounted to 16 nM.

Regarding `CNc1cc(-c2ccc3cc(C#N)cnn23)ncc1-c1nnc([C@H]2CC[C@H](N(C)CC3CCN(c4ccc(C(=O)N(C)C5CCC(=O)NC5=O)cc4)CC3)CC2)s1` (stereo partly drawn) [Example 189, 4-(4-((((1r,4r)-4-(5-(6-(3-cyanopyrrolo[1,2-b]pyridazin-7-yl)-4-(methylamino)pyridin-3-yl)-1,3,4-thiadiazol-2-yl)cyclohexyl)(methyl)amino)methyl)piperidin-1-yl)-N-(2,6-dioxopiperidin-3-yl)-N-methylbenzamide], the pIC50 on IRAK4 [1] is 9.52. Moreover, on IRAK4 [2], the Dmax was found to be 62% and the DC50 was 192 nM.

For the compound `CNc1cc(-c2ccc3cc(C#N)cnn23)ncc1-c1nnc([C@H]2C[C@H](NC(=O)CN3CCN(c4ccc5c(c4)C(=O)N(C4CCC(=O)NC4=O)C5=O)CC3)C2)s1` (stereo partly drawn) [Example 190, N-((1r,3r)-3-(5-(6-(3-cyanopyrrolo[1,2-b]pyridazin-7-yl)-4-(methylamino)pyridin-3-yl)-1,3,4-thiadiazol-2-yl)cyclobutyl)-2-(4-(2-(2,6-dioxopiperidin-3-yl)-1,3-dioxoisoindolin-5-yl)piperazin-1-yl)acetamide], the pIC50 on IRAK4 [1] was 9.00. Moreover, on IRAK4 [2], the Dmax is 105% and the DC50 turned out to be 7.75 nM.

As to `CNc1cc(-c2ccc3cc(C#N)cnn23)ncc1-c1nnc([C@H]2CC[C@H](N(C)C(=O)C[C@H](NC(=O)[C@@H]3C[C@@H](O)CN3C(=O)C(c3cc(C)no3)C(C)C)c3ccc(-c4scnc4C)cc3)CC2)s1` (stereo partly drawn) [Example 191, (2S,4R)—N—((S)-3-(((1r,4S)-4-(5-(6-(3-cyanopyrrolo[1,2-b]pyridazin-7-yl)-4-(methylamino)pyridin-3-yl)-1,3,4-thiadiazol-2-yl)cyclohexyl)(methyl)amino)-1-(4-(4-methylthiazol-5-yl)phenyl)-3-oxopropyl)-4-hydroxy-1-(3-methyl-2-(3-methylisoxazol-5-yl)butanoyl)pyrrolidine-2-carboxamide], the pIC50 on IRAK4 [1] was 8.82. On IRAK4 [2], the Dmax came to 110% and the DC50 came to 48.2 nM.

Take `CCN(C(=O)C[C@H](NC(=O)[C@@H]1C[C@@H](O)CN1C(=O)C(c1cc(C)no1)C(C)C)c1ccc(-c2scnc2C)cc1)[C@H]1CC[C@H](c2nnc(-c3cnc(-c4ccc5cc(C#N)cnn45)cc3NC)s2)CC1` (stereo partly drawn) [Example 192, (2S,4R)—N—((S)-3-(((1r,4S)-4-(5-(6-(3-cyanopyrrolo[1,2-b]pyridazin-7-yl)-4-(methylamino)pyridin-3-yl)-1,3,4-thiadiazol-2-yl)cyclohexyl)(ethyl)amino)-1-(4-(4-methylthiazol-5-yl)phenyl)-3-oxopropyl)-4-hydroxy-1-(3-methyl-2-(3-methylisoxazol-5-yl)butanoyl)pyrrolidine-2-carboxamide]: the pIC50 on IRAK4 [1] was 8.85. On IRAK4 [2], the Dmax was found to be 103% and the DC50 turned out to be 50.6 nM.

These data come from patent US12528814B2, “Bifunctional degraders of interleukin-1 receptor-associated kinases and therapeutic use thereof” (NURIX THERAPEUTICS, INC., priority 2020, dated 2026).
